Assay results as given in patent publication US4098891A, “Certain s-triazines as lipogenesis inhibitors” (Shell Oil Company, priority 1977, dated 1978).

tested on: swine adipose tissue; assay: Inhibition of lipogenesis (lipid synthesis from glucose-U-14C) in slices of swine adipose tissue in vitro; format: cell-based; settings: Sus scrofa, 100 micrograms per milliliter, 2 hours at 37° C, 5% DMSO, read-out: Percent Inhibition of lipogenesis (lipid synthesis) compared to control
Description: The manner in which they cause this effect is not known with certainty; it is believed that they interfere with the synthesis of fatty acids in the tissues. Their effectiveness for this purpose has been ascertained in one series of tests by immersing samples of swine adipose tissue in a liquid medium containing radioactive glucose and the test chemical, for a period of time, then isolating the lipid from the treated tissue and determining the up-take of the radioactive carbon by means of scintillation counting techniques. These tests were conducted in swine adipose tissue because in swine, the primary site of lipogenesis--i.e., fatty acid synthesis--appears to be adipose tissue.
Described in more detail, the tests were conducted according to the following general procedure:
150 Milligrams of slices of swine adipose tissue were incubated at 37° C for 2 hours with shaking in 3 milliliters of Krebs-Ringer bicarbonate solution containing one half the normal calcium ion concentration, 60 micromoles of glucose, 0.5 micro-Curie of glucose-U^14 C, 300 microunits of insulin, and 5% dimethyl sulfoxide (DMSO). The test compounds were added as suspensions or solutions in DMSO and were present at a concentration of 100 micrograms per milliliter of the incubation mixture.
The incubation was terminated by addition of 0.25 milliliter of 1 N sulfuric acid. The resulting mixture was extracted with a total of 25 milliliters of chloroform:methanol (2:1, v/v). The extracts were washed according to Folch et al. (J. Biol. Chem., 226, 497-509, (1957)), air dried, and counted in a liquid scintillation counter with 15 milliliters of counting fluid (two parts toluene containing 0.4% w/v New England Nuclear Omnifluor; 1 part Triton X-100. The tests were conducted in triplicate and were accompanied by control tests in which all ingredients,proportions and conditions were the same except that no test compound was included. From the data obtained were calculated the percent inhibition of lipid synthesis by the test compound in each case. The data obtained from the tests are set out in Table 1, as the percent inhibition of lipogenesis compared to the results obtained in the control tests wherein only the test compound was omitted.

**Q.** Which inhibition at 100 µg/mL does the source give for `OCCNc1nc(N2CCOCC2)nc(C(Cl)(Cl)Cl)n1` [Compound 1] here?
**A.** The inhibition at 100 µg/mL was 63%.

**Q.** `OCCCNc1nc(N2CCOCC2)nc(C(Cl)(Cl)Cl)n1` [Compound 2] was tested. Which inhibition at 100 µg/mL did it give?
**A.** Its inhibition at 100 µg/mL is 59%.

**Q.** `CC(=O)OCCNc1nc(N2CCOCC2)nc(C(Cl)(Cl)Cl)n1` [Compound 3] was tested. Which inhibition at 100 µg/mL did it give?
**A.** Its inhibition at 100 µg/mL is 33%.

**Q.** For `CC(O)CNc1nc(N2CCOCC2)nc(C(Cl)(Cl)Cl)n1` (stereo not shown) [Compound 4], which inhibition at 100 µg/mL is on record?
**A.** Its inhibition at 100 µg/mL is 44%.

**Q.** `COCCCNc1nc(NCCO)nc(C(Cl)(Cl)Cl)n1` [Compound 5] was tested. Which inhibition at 100 µg/mL did it give?
**A.** Its inhibition at 100 µg/mL is 44%.

**Q.** `CC(C)OCCCNc1nc(N(CCO)CCO)nc(C(Cl)(Cl)Cl)n1` [Compound 6] was tested. Which inhibition at 100 µg/mL did it give?
**A.** The inhibition at 100 µg/mL was 62%.

**Q.** With `CN(CCO)c1nc(N2CCOCC2)nc(C(Cl)(Cl)Cl)n1` [Compound 7] as the compound, how does the inhibition at 100 µg/mL read?
**A.** Its inhibition at 100 µg/mL is 32%.

**Q.** How did the inhibition at 100 µg/mL turn out when `CN(CCO)c1nc(NCCO)nc(C(Cl)(Cl)Cl)n1` [Compound 8] was run?
**A.** Its inhibition at 100 µg/mL is 58%.

**Q.** Which inhibition at 100 µg/mL does the source give for `CN(C)C(=O)OCCNc1nc(N2CCOCC2)nc(C(Cl)(Cl)Cl)n1` [Compound 9] here?
**A.** The inhibition at 100 µg/mL was 65%.

**Q.** Which inhibition at 100 µg/mL does the source give for `COC(=O)CCC(=O)OCCNc1nc(N2CCOCC2)nc(C(Cl)(Cl)Cl)n1` [Compound 10] here?
**A.** Its inhibition at 100 µg/mL is 43%.

**Q.** With `CC(=O)N1CCN(c2nc(NCC(C)O)nc(C(Cl)(Cl)Cl)n2)CC1` (stereo not shown) [Compound 11] as the compound, how does the inhibition at 100 µg/mL read?
**A.** Its inhibition at 100 µg/mL is 72%.

**Q.** `CC(O)CNc1nc(N2CCN(C(=O)Nc3ccccc3)CC2)nc(C(Cl)(Cl)Cl)n1` (stereo not shown) [Compound 12] was tested. Which inhibition at 100 µg/mL did it give?
**A.** The inhibition at 100 µg/mL was 29%.

**Q.** Which inhibition at 100 µg/mL does the source give for `CC(O)CNc1nc(N2CCN(C(=O)CCC(=O)O)CC2)nc(C(Cl)(Cl)Cl)n1` (stereo not shown) [Compound 13] here?
**A.** Its inhibition at 100 µg/mL is 21%.

**Q.** How did the inhibition at 100 µg/mL turn out when `CC(=O)NCCNc1nc(N2CCOCC2)nc(C(Cl)(Cl)Cl)n1` [Compound 14] was run?
**A.** Its inhibition at 100 µg/mL is 66%.

**Q.** With `O=C(O)CCNc1nc(N2CCOCC2)nc(C(Cl)(Cl)Cl)n1` [Compound 15] as the compound, how does the inhibition at 100 µg/mL read?
**A.** Its inhibition at 100 µg/mL is 44%.

**Q.** How did the inhibition at 100 µg/mL turn out when `CCNc1nc(NCCC(=O)N2CCOCC2)nc(C(Cl)(Cl)Cl)n1` [Compound 16] was run?
**A.** Its inhibition at 100 µg/mL is 38%.

**Q.** With `CC(C)(CO)Nc1nc(NCCCN2CCOCC2)nc(C(Cl)(Cl)Cl)n1` [Compound 17] as the compound, how does the inhibition at 100 µg/mL read?
**A.** The inhibition at 100 µg/mL was 43%.

**Q.** Which inhibition at 100 µg/mL does the source give for `OCCNc1nc(N2CCCC2)nc(C(Cl)(Cl)Cl)n1` [Compound 18] here?
**A.** Its inhibition at 100 µg/mL is 63%.

**Q.** For `O=C(NCCO)N1CCN(c2nc(NCCO)nc(C(Cl)(Cl)Cl)n2)CC1` [Compound 19], which inhibition at 100 µg/mL is on record?
**A.** The inhibition at 100 µg/mL was 75%.

**Q.** Which inhibition at 100 µg/mL does the source give for `CN1CCN(c2nc(NCCO)nc(C(Cl)(Cl)Cl)n2)CC1` [Compound 20] here?
**A.** Its inhibition at 100 µg/mL is 27%.

tested on: swine; assay: In vivo test in young, growing pigs fed Compound 1; lipogenesis in adipose tissue biopsy slices; settings: in feed, approximately 50 mg/kg body weight per day for seven days
Experimental: The effect of compound 1 on inhibition of lipogenesis in swine was confirmed by an in vivo test in which Compound 1 was included in the feed given to young, growing pigs for seven days, at a dosage of approximately 50 milligrams of Compound 1 per kilogram of the pig's body weight per day. Adipose tissue biopsy samples were taken at days 0, 6, 7 and 13 (one week off the drug) and the effect of the test compound on lipogenesis was determined using tissue slices prepared from the biopsy samples, by the procedure used in the in vitro tests.

**Q.** How did the symptom of toxicity turn out when `OCCNc1nc(N2CCOCC2)nc(C(Cl)(Cl)Cl)n1` [Compound 1] was run?
**A.** Its symptom of toxicity is “No symptom of toxicity due to the test compound was noted”.

same assay, conditions: in feed, approximately 50 mg/kg body weight per day for seven days, day 13 (one week off the drug)

**Q.** For `OCCNc1nc(N2CCOCC2)nc(C(Cl)(Cl)Cl)n1` [Compound 1], which “effect on lipogenesis in adipose tissue biopsy samples” value is on record?
**A.** Its value is “significantly reduced lipogenesis”.

tested on: whole epididymal fat pads; assay: Inhibition of incorporation of acetate-1-14C into long chain fatty acids in rat epididymal fat pads; format: cell-based, Sprague-Dawley rats; settings: 1 h, 10^-4 M, 60 minutes, acetate-1-14C, read-out: Percent Inhibition of incorporation of acetate into long chain fatty acids
Experimental: The effect of Compounds 1, 15, 19, 20, 21, 22 and 33 on rats was determined by a modification of the method of D. D. Feller, J. Biol. Chem., 206, 171 (1954): whole epididymal fat pads from 110-150 gram Sprague-Dawley rats were incubated in 4 milliliters of Krebs-Ringer bicarbonate buffer for 30 minutes in an atmosphere of 95% O2 -5% CO2. At the end of the 30 minute period 1 milliliter of Krebs-Ringer bicarbonate buffer containing 8.2 micromoles of acetate (0.1 microcuries of acetate-1-^14 C), 55.0 micromoles of glucose and 50.0 micromoles of succinic acid was added to the incubating mixture and the incubation was continued for 60 minutes more. Test compounds were dissolved in dimethyl sulfoxide (DMSO) and added to the incubating mixture with the fat pad. […] The concentration of the test compound in the liquid medium was 10^-4 M. The incubation was carried out with paired fat pads; the contralateral fat pad from the same rat served as the untreated control.
After incubation, the fat pads were washed in two 5 milliliter aliquots of normal saline and extracted twice with 20 milliliters of chloroform:methanol (2:1) by vigorous shaking for 60 minutes. The extracts were combined and brought to volume with fresh organic solvent in a 50 milliliter volumetric flask containing 1 milliliter of 3N hydrochloric acid. A 5 milliliter aliquot of this mixture was transferred into a 20 milliliter scintillator vial and evaporated to dryness (50° C) to remove traces of acetic acid. To the vials were added 17 ml of scintillator solution consisting of 0.3% diphenyloxazole and 0.01% of 1,4-bis(2,5-phenyloxazolyl)benzene in a solvent of 23% ethanol in toluene. Radioactivity was measured by liquid scintillation counting.
Table II indicates the percent inhibition of incorporation of the acetate into long chain fatty acids--a measure of inhibition of lipogenesis.

**Q.** With `OCCNc1nc(N2CCOCC2)nc(C(Cl)(Cl)Cl)n1` [Compound 1] as the compound, how does the inhibition at 100 µM read?
**A.** Its inhibition at 100 µM is 57%.

**Q.** Which inhibition at 100 µM does the source give for `O=C(O)CCNc1nc(N2CCOCC2)nc(C(Cl)(Cl)Cl)n1` [Compound 15] here?
**A.** The inhibition at 100 µM was 29%.

**Q.** `O=C(NCCO)N1CCN(c2nc(NCCO)nc(C(Cl)(Cl)Cl)n2)CC1` [Compound 19] was tested. Which inhibition at 100 µM did it give?
**A.** The inhibition at 100 µM was 44%.

**Q.** `CN1CCN(c2nc(NCCO)nc(C(Cl)(Cl)Cl)n2)CC1` [Compound 20] was tested. Which inhibition at 100 µM did it give?
**A.** Its inhibition at 100 µM is 56%.

**Q.** `OCCNc1nc(N2CCNCC2)nc(C(Cl)(Cl)Cl)n1` [Compound 21] was tested. Which inhibition at 100 µM did it give?
**A.** Its inhibition at 100 µM is 65%.

**Q.** Which inhibition at 100 µM does the source give for `CC(O)CNc1nc(N2CCNCC2)nc(C(Cl)(Cl)Cl)n1` (stereo not shown) [Compound 22] here?
**A.** The inhibition at 100 µM was 30%.

**Q.** `CCNc1nc(N2CCCCC2)nc(C(Cl)(Cl)Cl)n1` [Compound 33] was tested. Which inhibition at 100 µM did it give?
**A.** Its inhibition at 100 µM is 31%.

same assay, conditions: same procedure as Table II

**Q.** Which “inhibition of acetate incorporation (in words)” value does the source give for `CC(O)CNc1nc(N2CCN(C(=O)CCC(=O)O)CC2)nc(C(Cl)(Cl)Cl)n1` (stereo not shown) [Compound 13] here?
**A.** Its value is “not to inhibit acetate incorporation”.

tested on: rats; assay: Rats fed Compound 1 in the diet; lipogenesis by weighing fat pads; format: in vivo; settings: Compound 1 in diet, compared to control rats

**Q.** For `OCCNc1nc(N2CCOCC2)nc(C(Cl)(Cl)Cl)n1` [Compound 1], which “inhibition of lipogenesis, by weighing fat pads on sacrifice” value is on record?
**A.** Its value is “lipogenesis had been inhibited to a significant extent”.
